Laboratory results reported in US20080207683A1, “BIARYL-S[…]-PYRAZOLO-PYRIDINE MODULATORS OF CATHEPSIN S” (priority 2007, published 2008).

Biological target: T1, Human CatS (Homo sapiens, UniProt P25774)
T1 construct: made in house; host or cells: Sf9 insect cells (baculovirus vector pFB+HT)
Test: CatS inhibition of hydrolysis of fluorescent substrate Z-Val-Val-Arg-AFC
Type: biochemical
Conditions: not given
Description: Human CatS was cloned into pFB+HT (from Stratagene clone), expressed in Sf9 cells, and purified over a Ni column. Fractions were concentrated and activated at pH 4.0 for 6 hr and then purified over a thiopropylsepharose column and eluted with 1×TBS, 500 mM NaCl, 1 mM EDTA, 25 mM DTT pH 7.6. Glycerol (50%) was added in a 1:1 (vol/vol) ratio (25% glycerol final) and protein was stored at −80° C. in 5 μL aliquots. […] The increase in fluorescence over time was monitored using λexcitation=400 nm and λemission=505 nm.
In equation 1, v is the initial rate measured in the presence of [I]0, the inhibitor concentration, using an enzyme concentration [E]0. v0 is the initial rate measured in the absence of inhibitor.

T1 sequence (P25774 115-331): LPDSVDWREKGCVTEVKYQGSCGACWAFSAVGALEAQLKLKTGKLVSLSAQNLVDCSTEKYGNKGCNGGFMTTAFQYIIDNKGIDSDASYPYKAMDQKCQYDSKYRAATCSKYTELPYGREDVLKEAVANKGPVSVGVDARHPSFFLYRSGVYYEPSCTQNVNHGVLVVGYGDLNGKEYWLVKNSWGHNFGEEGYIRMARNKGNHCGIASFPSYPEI

For Cc1ccc2[nH]c([C@H](C)NC(=O)c3cccc(-c4cc(-c5nn(CCCN6CCCC6)c6c5CN(S(C)(=O)=O)CC6)ccc4Cl)c3)nc2c1 [Example 20, (S)-2′-Chloro-5′-[5-methanesulfonyl-1-(3-pyrrolidin-1-yl-propyl)-4,5,6,7-tetrahydro-1H-pyrazolo[4,3-c]pyridin-3-yl]-biphenyl-3-carboxylic acid [1-(5-methyl-1H-benzoimidazol-2-yl)-ethyl]-amide], the Ki was 188 nM.

Same assay, conditions: apparent Ki, Morrison equation fit of initial rates; 10 μM Z-Val-Val-Arg-AFC, pH 5.0, 1.5 nM CatS; read-out: CatS Ki^app

In order of rising Ki:
1. CC(NC(=O)c1cccc(-c2cc(-c3nn(CCCN4CCCC4)c4c3CN(S(C)(=O)=O)CC4)ccc2Cl)c1)c1nc2ccccc2[nH]1 (stereo not drawn) [Example 18, 2′-Chloro-5′-[5-methanesulfonyl-1-(3-pyrrolidin-1-yl-propyl)-4,5,6,7-tetrahydro-1H-pyrazolo[4,3-c]pyridin-3-yl]-biphenyl-3-carboxylic acid [1-(1H-benzoimidazol-2-yl)-ethyl]-amide]  22.6 nM
2. Cc1ccc2[nH]c(C(C)NC(=O)c3cccc(-c4cc(-c5nn(CCCN6CCCC6)c6c5CN(S(C)(=O)=O)CC6)ccc4Cl)c3)nc2c1 (stereo not drawn) [Example 16, 2′-Chloro-5′-[5-methanesulfonyl-1-(3-pyrrolidin-1-yl-propyl)-4,5,6,7-tetrahydro-1H-pyrazolo[4,3-c]pyridin-3-yl]-biphenyl-3-carboxylic acid [1-(5-methyl-1H-benzoimidazol-2-yl)-ethyl]-amide]  24 nM
3. COc1ccc(NCCNC(=O)c2cccc(-c3cc(-c4nn(CCCN5CCC(O)C5)c5c4CNCC5)ccc3Cl)c2)cc1 (stereo not drawn) [Example 44, 2′-Chloro-5′-{1-[3-(3-hydroxy-pyrrolidin-1-yl)-propyl]-4,5,6,7-tetrahydro-1H-pyrazolo[4,3-c]pyridin-3-yl}-biphenyl-3-carboxylic acid [2-(4-methoxy-phenylamino)-ethyl]-amide]  30.4 nM
4. CC(=O)N1CCc2c(c(-c3ccc(Cl)c(-c4cccc(C(=O)N[C@@H](C)c5nc6cc(F)c(F)cc6[nH]5)c4)c3)nn2CCCN2CCCC2)C1 [Example 37, (S)-5′-[5-Acetyl-1-(3-pyrrolidin-1-yl-propyl)-4,5,6,7-tetrahydro-1H-pyrazolo[4,3-c]pyridin-3-yl]-2′-chloro-biphenyl-3-carboxylic acid [1-(5,6-difluoro-1H-benzoimidazol-2-yl)-ethyl]-amide]  38.5 nM
5. Cc1ccc(NCCNC(=O)c2cccc(-c3cc(-c4nn(CCCN5CCC(O)C5)c5c4CNCC5)ccc3Cl)c2)cc1C (stereo not drawn) [Example 42, 2′-Chloro-5′-{1-[3-(3-hydroxy-pyrrolidin-1-yl)-propyl]-4,5,6,7-tetrahydro-1H-pyrazolo[4,3-c]pyridin-3-yl}-biphenyl-3-carboxylic acid [2-(3,4-dimethyl-phenylamino)-ethyl]-amide]  41.7 nM
6. CN(C)S(=O)(=O)c1cccc2c1N(CCNC(=O)c1cccc(-c3cc(-c4nn(CCCN5CCCC5)c5c4CN(S(C)(=O)=O)CC5)ccc3Cl)c1)CC2 [Example 10, 2′-Chloro-5′-[5-methanesulfonyl-1-(3-pyrrolidin-1-yl-propyl)-4,5,6,7-tetrahydro-1H-pyrazolo[4,3-c]pyridin-3-yl]-biphenyl-3-carboxylic acid [2-(7-dimethylsulfamoyl-2,3-dihydro-indol-1-yl)-ethyl]-amide]  49.4 nM
7. O=C(NCCNc1ccc(OCC2CCCC2)cc1)c1cccc(-c2cc(-c3nn(CCCN4CCC(O)C4)c4c3CNCC4)ccc2Cl)c1 (stereo not drawn) [Example 47, 2′-Chloro-5′-{1-[3-(3-hydroxy-pyrrolidin-1-yl)-propyl]-4,5,6,7-tetrahydro-1H-pyrazolo[4,3-c]pyridin-3-yl}-biphenyl-3-carboxylic acid [2-(4-cyclopentylmethoxy-phenylamino)-ethyl]-amide]  53.7 nM
8. CS(=O)(=O)N1CCc2c(c(-c3ccc(Cl)c(-c4cccc(C(=O)NCCNc5ccc(OCC6CCCC6)cc5)c4)c3)nn2CCCN2CCCC2)C1 [Example 5, 2′-Chloro-5′-[5-methanesulfonyl-1-(3-pyrrolidin-1-yl-propyl)-4,5,6,7-tetrahydro-1H-pyrazolo[4,3-c]pyridin-3-yl]-biphenyl-3-carboxylic acid [2-(4-cyclopentylmethoxy-phenylamino)-ethyl]-amide]  60.2 nM
9. CS(=O)(=O)N1CCc2c(c(-c3ccc(Cl)c(-c4cccc(C(=O)NCc5nc6ccccc6s5)c4)c3)nn2CCCN2CCC(N3CCCC3=O)CC2)C1 [Example 34, 2′-Chloro-5′-(5-methanesulfonyl-1-{3-[4-(2-oxo-pyrrolidin-1-yl)-piperidin-1-yl]-propyl}-4,5,6,7-tetrahydro-1H-pyrazolo[4,3-c]pyridin-3-yl)-biphenyl-3-carboxylic acid (benzothiazol-2-ylmethyl)-amide]  72.3 nM
10. CS(=O)(=O)N1CCc2c(c(-c3ccc(Cl)c(-c4cccc(C(=O)NCc5nc(-c6ccccc6)cs5)c4)c3)nn2CCCN2CCCC2)C1 [Example 23, 2′-Chloro-5′-[5-methanesulfonyl-1-(3-pyrrolidin-1-yl-propyl)-4,5,6,7-tetrahydro-1H-pyrazolo[4,3-c]pyridin-3-yl]-biphenyl-3-carboxylic acid (4-phenyl-thiazol-2-ylmethyl)-amide]  88.9 nM
11. CS(=O)(=O)N1CCc2c(c(-c3ccc(Cl)c(-c4cccc(C(=O)NCc5nc6cc(F)ccc6s5)c4)c3)nn2CCCN2CCCC2)C1 [Example 25, 2′-Chloro-5′-[5-methanesulfonyl-1-(3-pyrrolidin-1-yl-propyl)-4,5,6,7-tetrahydro-1H-pyrazolo[4,3-c]pyridin-3-yl]-biphenyl-3-carboxylic acid (5-fluoro-benzothiazol-2-ylmethyl)-amide]  117 nM
12. CN(C)S(=O)(=O)c1ccc2c(c1)N(CCNC(=O)c1cccc(-c3cc(-c4nn(CCCN5CCCC5)c5c4CN(S(C)(=O)=O)CC5)ccc3Cl)c1)CC2 [Example 11, 2′-Chloro-5′-[5-methanesulfonyl-1-(3-pyrrolidin-1-yl-propyl)-4,5,6,7-tetrahydro-1H-pyrazolo[4,3-c]pyridin-3-yl]-biphenyl-3-carboxylic acid [2-(6-dimethylsulfamoyl-2,3-dihydro-indol-1-yl)-ethyl]-amide]  135 nM
13. CS(=O)(=O)N1CCc2c(c(-c3ccc(Cl)c(-c4cccc(C(=O)NCCN5CCc6ccc(F)cc65)c4)c3)nn2CCCN2CCC(N3CCCC3=O)CC2)C1 [Example 33, 2′-Chloro-5′-(5-methanesulfonyl-1-{3-[4-(2-oxo-pyrrolidin-1-yl)-piperidin-1-yl]-propyl}-4,5,6,7-tetrahydro-1H-pyrazolo[4,3-c]pyridin-3-yl)-biphenyl-3-carboxylic acid [2-(6-fluoro-2,3-dihydro-indol-1-yl)-ethyl]-amide]  163 nM
14. CN(C)S(=O)(=O)c1cccc2c1N(CCNC(=O)c1cccc(-c3cc(-c4nn(CCCN5CCC(O)C5)c5c4CNCC5)ccc3Cl)c1)CC2 (stereo not drawn) [Example 45, 2′-Chloro-5′-{1-[3-(3-hydroxy-pyrrolidin-1-yl)-propyl]-4,5,6,7-tetrahydro-1H-pyrazolo[4,3-c]pyridin-3-yl}-biphenyl-3-carboxylic acid [2-(7-dimethylsulfamoyl-2,3-dihydro-indol-1-yl)-ethyl]-amide]  225 nM
15. CC(=O)N1CCc2c(c(-c3ccc(Cl)c(-c4cccc(C(=O)NCc5nc6ccccc6s5)c4)c3)nn2CCCN2CCCC2)C1 [Example 38, 5′-[5-Acetyl-1-(3-pyrrolidin-1-yl-propyl)-4,5,6,7-tetrahydro-1H-pyrazolo[4,3-c]pyridin-3-yl]-2′-chloro-biphenyl-3-carboxylic acid (benzothiazol-2-ylmethyl)-amide]  231 nM
16. CS(=O)(=O)N1CCc2c(c(-c3ccc(Cl)c(-c4cccc(C(=O)NCCN5CCc6cc(F)ccc65)c4)c3)nn2CCCN2CCCC2)C1 [Example 8, 2′-Chloro-5′-[5-methanesulfonyl-1-(3-pyrrolidin-1-yl-propyl)-4,5,6,7-tetrahydro-1H-pyrazolo[4,3-c]pyridin-3-yl]-biphenyl-3-carboxylic acid [2-(5-fluoro-2,3-dihydro-indol-1-yl)-ethyl]-amide]  237 nM
17. CS(=O)(=O)N1CCc2c(c(-c3ccc(Cl)c(-c4cccc(C(=O)NCc5ncco5)c4)c3)nn2CCCN2CCCC2)C1 [Example 12, 2′-Chloro-5′-[5-methanesulfonyl-1-(3-pyrrolidin-1-yl-propyl)-4,5,6,7-tetrahydro-1H-pyrazolo[4,3-c]pyridin-3-yl]-biphenyl-3-carboxylic acid (oxazol-2-ylmethyl)-amide]  240 nM
18. CS(=O)(=O)N1CCc2c(c(-c3ccc(Cl)c(-c4cccc(C(=O)NCCNc5cccc6c5CCC6)c4)c3)nn2CCCN2CCCC2)C1 [Example 3, 2′-Chloro-5′-[5-methanesulfonyl-1-(3-pyrrolidin-1-yl-propyl)-4,5,6,7-tetrahydro-1H-pyrazolo[4,3-c]pyridin-3-yl]-biphenyl-3-carboxylic acid [2-(indan-4-ylamino)-ethyl]-amide]  335 nM
19. CN(C)S(=O)(=O)c1ccc2c(c1)N(CCNC(=O)c1cccc(-c3cc(-c4nn(CCCN5CCC(O)C5)c5c4CNCC5)ccc3Cl)c1)CC2 (stereo not drawn) [Example 46, 2′-Chloro-5′-{1-[3-(3-hydroxy-pyrrolidin-1-yl)-propyl]-4,5,6,7-tetrahydro-1H-pyrazolo[4,3-c]pyridin-3-yl}-biphenyl-3-carboxylic acid [2-(6-dimethylsulfamoyl-2,3-dihydro-indol-1-yl)-ethyl]-amide]  510 nM
20. CC(=O)N1CCc2c(c(-c3ccc(Cl)c(-c4cccc(C(=O)N[C@@H](C)CN5CCc6cc(F)ccc65)c4)c3)nn2CCCN2CCCC2)C1 [Example 36, (S)-5′-[5-Acetyl-1-(3-pyrrolidin-1-yl-propyl)-4,5,6,7-tetrahydro-1H-pyrazolo[4,3-c]pyridin-3-yl]-2′-chloro-biphenyl-3-carboxylic acid [2-(5-fluoro-2,3-dihydro-indol-1-yl)-1-methyl-ethyl]-amide]  736 nM
